Results taken from patent US20250213474A1, “COMPOSITIONS AND METHODS FOR METAL CONTAINING FORMULATIONS CAPABLE OF MODULATING IMMUNE RESPONSE” (The Regents of the University of Michigan, priority 2021, published 2025).

What was measured:
CT26 colon cancer cells = experiment: CT26 tumor model, intratumoral cdAMP(ps)2 formulations; format: in vivo, Balb/c mice
Method: When tumor size reach ˜60 mm^3, 2 doses of 25 ug/dose cdAMP(ps)2 were administrated intra-tumorally on days 10 and 15. To evaluate antigen-specific immune responses, PBMCs were collected for tetramer staining on day 17 and ELISPOT analysis with AH1 antigen peptides on day 22. […] Although CDN-Zn seemed to better inhibit tumor growth, compared with CDN and CDNs@CaP/PEI-PEG, there was no statistical difference among them. For the survival of mice after treatment, median survival time for untreated, CDN, CDN-Zn and CDNs@CaP/PEI-PEG group was 23 days, 42 days, 64 days and unreached, respectively (FIG. 4B).
All animals were cared for following federal, state, and local guidelines. All work performed on animals was in accordance with and approved by the University Committee on Use and Care of Animals (UCUCA) at University of Michigan, Ann Arbor. Female Balb/c mice of age 6-8 weeks (Jackson Laboratories) were inoculated with 1×10^5 CT26 colon cancer cells. When tumor size achieved ˜100 mm^3, 2 doses of 25 ug cdAMP(ps)2 in different formulations were administrated via intra-tumoral route on day 10 and day 15. Tumor size and survival were monitored every 2 or 3 days. Tumor size was calculated based on equation: volume=length×width^2×0.5. Animals were euthanized when the tumor reached 1.5 cm in diameter or when animals became moribund with severe weight loss or ulceration. At day 17, the percentages of tumor antigen-specific CD8α+ T cells among PBMC were analyzed using the tetramer staining assay as described previously with peptide-MHC tetramer ([…] AH1) (the NIH Tetramer Core Facility, Atlanta, GA). On day 22, ELISPOT assay was performed with PBMC from the treated mice as described previously.
All animals were cared for following federal, state, and local guidelines. All work performed on animals was in accordance with and approved by the University Committee on Use and Care of Animals (UCUCA) at University of Michigan, Ann Arbor. Female Balb/c mice of age 6-8 weeks (Jackson Laboratories) were inoculated with 1×10^5 CT26 colon cancer cells. When tumor size achieved ˜50 mm^3, indicated drugs or formulations were administrated via the indicated route. Tumor size and survival were monitored every 2 or 3 days. Tumor size was calculated based on equation: volume=length×width^2×0.5. Animals were euthanized when the tumor reached 1.5 cm in diameter or when animals became moribund with severe weight loss or un-healing ulceration. At day 17, the percentages of tumor antigen-specific CD8α+ T cells among PBMC were analyzed using the tetramer staining assay as described previously with peptide-MHC tetramer ([…] AH1) (the NIH Tetramer Core Facility, Atlanta, GA). […]
We also evaluated a subset of the formulations mentioned above in tumor-bearing mice. […]

[1] = tested on: cGAS-STING-Type I IFN pathway; experiment: Inhibition of DNA/lipofectamine-induced IFN-I response in THP 1 dual-KI-hSTING WT(R232) reporter cells; format: cell-based, human; details: DNA/lipofectamine complex challenging, ISRE induced luminescence
Description: (§1) FIGS. 18A-18F: Chelating metal ions to inhibit cGAS-STING-Type I IFN pathway. (FIG. 18A) Molecular structure of representative chelators that could inhibit cGAS-STING-Type I IFN pathway. (FIGS. 18B-18C) Dose-inhibition curves of the IFN-I response (FIG. 18B) and NF-kB inflammation response (FIG. 18C) by the indicated compounds in DNA/lipofectamine 2000 (ThermoFisher, 11668027) treated THP 1 dual-KI-hSTING^WT(R232) reporter cells (Invivogen, thpd-r232). (FIG. 18D) Cellular viability of FIGS. 18B-18C. (FIG. 18E) Dose-inhibition curves of the IFN-I response by the indicated compounds in DNA/lipofectamine 2000 (ThermoFisher, 11668027) treated THP 1-ISG hSTING^HAQ reporter cells (Invivogen, thp-isg). […]
(§2) Given the interesting function of metal ions on modulating innate immune response in our finding, we further evaluated whether chelating metal ions could inhibit the according innate immune pathways, which may be used to treat autoimmune diseases, such as Systemic lupus erythematosus, Aicardi-Goutieres syndrome, Acute pancreatitis Age-dependent macular degeneration, Alcoholic liver disease, Liver fibrosis, Metastasis, Myocardial infarction, Nonalcoholic steatohepatitis (NASH), Parkinson's disease, Polyarthritis/fetal and neonatal anemia, Sepsis, inflammatory bowel disease, multiple sclerosis, etc. […] By a ISRE induced luminescence, we could read the degree of inhibition. […]

[2] = tested on: THP 1 dual-KI-hSTING^WT(R232) reporter cells; experiment: Cellular viability of chelator-treated THP 1 dual-KI-hSTING WT(R232) reporter cells; format: cell-based, human
Description: as §1, §2

[3] = 2 doses of 25 ug/dose cdAMP(ps)2 intratumorally on days 10 and 15

| Compound | average tumor growth compared with the untreated group (CT26 colon cancer cells; [3]) | median survival time (CT26 colon cancer cells; [3]) [days] | AH1 antigen-specific T cell response (ELISPOT) (CT26 colon cancer cells; day 22, seven days after the 2nd dose) | complete tumor regression (CT26 colon cancer cells; individual tumor growth curves, 5 mice per group) | IC50 of DNA-induced Type I IFN response [1] | tolerability in in-vitro assay (cellular viability) [2] |
| --- | --- | --- | --- | --- | --- | --- |
| cdAMP(ps)2 [free CDN] | greatly delayed | 42 | significant AH1 antigen-specific T cell response | 2 out of 5 | – | – |
| O=C(OC[C@H]1O[C@@H](OC(=O)c2cc(O)c(O)c(OC(=O)c3cc(O)c(O)c(O)c3)c2)[C@H](OC(=O)c2cc(O)c(O)c(OC(=O)c3cc(O)c(O)c(O)c3)c2)[C@@H](OC(=O)c2cc(O)c(O)c(OC(=O)c3cc(O)c(O)c(O)c3)c2)[C@@H]1OC(=O)c1cc(O)c(O)c(OC(=O)c2cc(O)c(O)c(O)c2)c1)c1cc(O)c(O)c(OC(=O)c2cc(O)c(O)c(O)c2)c1 [tannin acid, Tannic acid] | – | – | – | – | as low as nanomolar level | well-tolerated |
| O=C1O[C@H]2[C@@H]3OC(=O)c4cc(O)c(O)c(O)c4-c4c(O)c(O)c5oc(=O)c6c(c(O)c(O)c7oc(=O)c4c5c76)-c4c(cc(O)c(O)c4O)C(=O)OC[C@H]3OC(O)[C@@H]2OC(=O)c2cc(O)c(O)c(O)c2-c2c1cc(O)c(O)c2O (mixture of isomers) [Punicalagin] | – | – | – | – | as low as nanomolar level | well-tolerated |
